Reference: patent publication US20200247855A1, “THERAPY AND DIAGNOSTICS” (OXFORD UNIVERSITY INNOVATION LIMITED, priority 2017, published 2020)
No end group written: not given here.

Molecular target: T1, CCL8_HUMAN (Homo sapiens, UniProt P80075)
T1 sequence (P80075 24-99): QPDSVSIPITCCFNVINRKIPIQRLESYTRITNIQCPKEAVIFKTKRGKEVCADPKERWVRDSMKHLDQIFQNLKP
Assay: Neutralisation of chemokine induced THP-1 cell migration
Type: cell-based
Description: Table 1. Tick CKBPs described in PCT/GB2017/050563 and [17]. Tick peptide sequences isolated in yeast surface display fluorescent-activated cell sorting (FACS) screens using a labelled chemokine. Identity with Evasin-1, 4 or 3 was calculated using BLAST. Abbreviations: IXORI—Ixodes ricinus, RHISA—Rhipicephalus sanguineus, AMBMA—Amblyomma maculatum, AMBPA—Amblyomma parvum, AMBTR—Amblyomma triste, AMBAM—Amblyomma americanum, AMBCA—Amblyomma cajennense, RHIPU—Rhipicephalus pulchellus. Table 2A-C. Binding characteristics of tick CKBPs previously disclosed (PCT/GB2017/050563 and [17]). All members of the human chemokine family[164] are listed in column 1. Binding to human chemokines was determined for 14 tick CKBPs using biolayer interferometry (BLI) with calculated Kd shown as Molar (Moles/Litre). Binding data for 17 other novel tick CKBPs was assayed using yeast surface display[17,166],with positive binding results shown as “YES”. For biolayer interferometry, His-tagged purified tick CKBP was bound to a Ni-NINTA sensor on an OctetRed® 384 system, and then binding to each chemokine listed (with the exception of CCL25, CCL26, CXCL16, CXCL17, CXCL4L1, XCL2) was assayed in a cross-binding screen at a chemokine concentration of 300 nM as described. For those chemokines showing binding to a tick CKBP in the cross-binding screen, binding assays were repeated using different doses of chemokine. Association, equilibrium and dissociation data were analysed using Octet software to create corresponding fitted curves, and used to calculate Kd. For yeast surface display, (YSD) background fluorescence was controlled for by using either an empty vector or by omitting the chemokine (i.e. using streptavidin-Alexa647 alone). An arbitrary threshold of >3 fold over background mean fluorescence intensity was chosen to describe confirmed re-tests. Where binding was detected data are indicated as “YES”. […] For yeast surface display data, empty cells represent chemokines that were not tested. Binding data published in relation to previously described tick CKBPs (Evasins-1, 4 and 3) is also shown for comparison in each of FIGS. 2A-C, with the relevant data obtained from publications: [20-22,32]. Table 3: Neutralisation of human chemokines by tick CKBPs previously disclosed (PCT/GB2017/050563 and [17]). Neutralising activity was determined using a quantitative THP1 cell migration assay in a 96-well Boyden chamber with chemokine in the bottom chamber as described. Cells migrating through to the bottom chamber at 4 hours were counted using flow cytometry in a 96 well plate format. IC50 for neutralisation was determined at the chemokine EC80 dose as determined using a range of tick CKBP concentrations. Data was analysed using GraphPad Prism to determine IC50, which is shown as Molar (Moles/Litre). Empty cells represent experiments not done. Table 4—Other previously described tick CKBPs. Tick CKBPs that were also described in PCT/GB2017/050563 and Singh et al. are indicated in “Notes”. Table 5.—Novel tick CKBPs of the invention. Table 6. […] The peptide sequence prefix indicates the identity, and suffix indicate the tick species as follows: AMBCA, Amblyomma cajennense and IXORI, Ixodes ricinus. […] Individual yeast clones recovered from the library were re-tested using a FACS (fluorescence activated cell sorting), experiment. The binding of the peptide to the chemokine was assayed by measuring the percent (%), of yeast cells expressing the given peptide that exceeded a background threshold set by measuring the fluorescence of the yeast library pool treated with streptavidin-[…] alone. When more than one independent yeast clone was isolated for a given peptide-chemokine combination, the mean percent shift was calculated and reported in column 3.

Q: How did the IC50 turn out when EDEDYEDFFKPVTAYF-NH2 [BK1.1] was run?
A: The IC50 was 510 nM.
